Measurements as given in ChEMBL document CHEMBL4311997, “Discovery of a potent histone deacetylase (HDAC) 3/6 selective dual inhibitor” (Eur J Med Chem, 2019).
≈ marks a conversion by molar mass, not a printed value. Calls of active or inactive are those of the source. The calls are words filed in the database; no cut-off is given here.

Assays:
KMS-12-BM [1] = experiment: Effect on human KMS-12-BM cells assessed as increase in cleaved PARP level at 10 uM incubated for 24 hrs by Western blot analysis; assay type: functional, cell-based
Homo sapiens [2] = species on record: Homo sapiens; experiment: Selectivity ratio of IC50 for human HDAC4 to IC50 for human HDAC6
MDA-MB-231 [3] = experiment: Induction of apoptosis in human MDA-MB-231 cells assessed as late apoptotic cells at 3 uM incubated for 48 hrs by Annexin V-FITC/PI staining by flow cytometric analysis (reference value: 3%); assay type: functional
MCF7 = experiment: Antiproliferative activity against human MCF7 cells incubated for 72 hrs by MTT assay; assay type: functional, cell-based; details: MCF7, 72 h
[4] = Selectivity index, ratio of EC50 for human MDA-MB-231 cells to IC50 for ring stage Plasmodium falciparum 3D7; assay type: functional; set-up: reference not given here
MDA-MB-231 [5] = experiment: Induction of apoptosis in human MDA-MB-231 cells assessed as necrotic cells at 6 uM incubated for 48 hrs by Annexin V-FITC/PI staining by flow cytometric analysis (reference value: 15%); assay type: functional
[6] = biological target: Histone-lysine N-methyltransferase EHMT2 (Homo sapiens) (UniProt Q96KQ7); experiment: Inhibition of human G9a at 100 uM using core histone H3 (1 to 21 residues) as substrate incubated for 1 hr in presence of [3H]-SAM by filter binding method relative to control
Histone-lysine N-methyltransferase EHMT2 (Homo sapiens), sequence (Q96KQ7 whole entry, the tested form may be a part): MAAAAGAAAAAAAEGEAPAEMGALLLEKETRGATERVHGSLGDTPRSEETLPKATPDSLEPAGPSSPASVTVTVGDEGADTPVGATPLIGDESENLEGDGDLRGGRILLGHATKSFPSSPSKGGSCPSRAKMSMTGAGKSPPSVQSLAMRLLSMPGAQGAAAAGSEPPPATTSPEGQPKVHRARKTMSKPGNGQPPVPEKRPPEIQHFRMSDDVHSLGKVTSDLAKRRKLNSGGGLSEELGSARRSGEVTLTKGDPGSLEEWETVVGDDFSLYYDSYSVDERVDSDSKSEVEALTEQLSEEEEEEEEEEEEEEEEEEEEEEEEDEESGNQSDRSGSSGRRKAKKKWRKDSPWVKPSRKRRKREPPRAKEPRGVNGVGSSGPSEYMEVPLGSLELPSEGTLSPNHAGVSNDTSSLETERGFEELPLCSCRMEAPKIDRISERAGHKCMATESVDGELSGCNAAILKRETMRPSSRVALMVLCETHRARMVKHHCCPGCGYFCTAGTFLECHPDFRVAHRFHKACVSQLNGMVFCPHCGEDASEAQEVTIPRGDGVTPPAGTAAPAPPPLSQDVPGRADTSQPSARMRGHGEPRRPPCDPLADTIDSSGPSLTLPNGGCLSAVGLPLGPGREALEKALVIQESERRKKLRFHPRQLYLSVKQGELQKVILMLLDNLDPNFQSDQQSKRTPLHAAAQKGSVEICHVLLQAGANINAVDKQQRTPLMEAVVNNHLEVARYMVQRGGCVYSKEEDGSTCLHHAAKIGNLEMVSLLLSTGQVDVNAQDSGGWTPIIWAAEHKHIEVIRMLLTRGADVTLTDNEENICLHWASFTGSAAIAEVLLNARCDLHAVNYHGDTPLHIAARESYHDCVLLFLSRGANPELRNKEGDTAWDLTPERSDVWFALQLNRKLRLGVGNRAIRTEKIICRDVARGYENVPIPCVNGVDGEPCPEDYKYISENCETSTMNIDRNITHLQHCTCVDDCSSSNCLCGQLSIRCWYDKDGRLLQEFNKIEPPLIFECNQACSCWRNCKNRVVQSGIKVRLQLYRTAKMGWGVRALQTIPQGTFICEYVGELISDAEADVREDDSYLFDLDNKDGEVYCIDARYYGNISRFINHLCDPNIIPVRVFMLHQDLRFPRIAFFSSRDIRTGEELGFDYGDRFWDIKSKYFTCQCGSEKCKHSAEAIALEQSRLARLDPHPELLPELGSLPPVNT

Homo sapiens [7] = species on record: Homo sapiens; experiment: Selectivity ratio of IC50 for human HDAC5 to IC50 for human HDAC6
[8] = biological target: DNA (cytosine-5)-methyltransferase 1 (Homo sapiens, UniProt P26358); experiment: Inhibition of human DNMT1 using Poly(dI-dC) as substrate incubated for 1 hr in presence of [3H]-SAM by filter binding method
Histone deacetylase 11 = Histone deacetylase 11 (Homo sapiens, UniProt Q96DB2); experiment: Inhibition of human HDAC11 using Acetyl-Lys (trifluoroacetyl)-AMC) as substrate incubated for 2 hrs by fluorescence assay
Histone deacetylase 11, sequence (Q96DB2 whole entry): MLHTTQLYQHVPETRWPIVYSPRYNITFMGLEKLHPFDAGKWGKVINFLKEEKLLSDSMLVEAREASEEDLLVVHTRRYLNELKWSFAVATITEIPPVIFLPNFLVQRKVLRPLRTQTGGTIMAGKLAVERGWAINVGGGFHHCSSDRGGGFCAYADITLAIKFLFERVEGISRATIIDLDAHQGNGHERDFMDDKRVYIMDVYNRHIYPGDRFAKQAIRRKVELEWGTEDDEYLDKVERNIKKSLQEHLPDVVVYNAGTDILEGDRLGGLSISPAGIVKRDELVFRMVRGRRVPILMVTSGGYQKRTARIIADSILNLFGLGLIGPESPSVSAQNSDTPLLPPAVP

TAMH = experiment: Cytotoxicity against TAMH cells incubated for 24 hrs by CellTiter-Glo Cell Viability Assay; assay type: cell-based; details: Mus musculus
[9] = Kinetic solubility in pH 7.4 universal buffer measured after 24 hrs by UV spectroscopic analysis; assay type: physicochemical; details: read-out: Kinetic_solubility
[10] = biological target: Histone deacetylase 4 (Homo sapiens) (UniProt P56524); experiment: Inhibition of human HDAC4 at 10 uM using Acetyl-Lys (trifluoroacetyl)-AMC) as substrate incubated for 2 hrs by fluorescence assay relative to control
Histone deacetylase 4 (Homo sapiens), sequence (P56524 whole entry): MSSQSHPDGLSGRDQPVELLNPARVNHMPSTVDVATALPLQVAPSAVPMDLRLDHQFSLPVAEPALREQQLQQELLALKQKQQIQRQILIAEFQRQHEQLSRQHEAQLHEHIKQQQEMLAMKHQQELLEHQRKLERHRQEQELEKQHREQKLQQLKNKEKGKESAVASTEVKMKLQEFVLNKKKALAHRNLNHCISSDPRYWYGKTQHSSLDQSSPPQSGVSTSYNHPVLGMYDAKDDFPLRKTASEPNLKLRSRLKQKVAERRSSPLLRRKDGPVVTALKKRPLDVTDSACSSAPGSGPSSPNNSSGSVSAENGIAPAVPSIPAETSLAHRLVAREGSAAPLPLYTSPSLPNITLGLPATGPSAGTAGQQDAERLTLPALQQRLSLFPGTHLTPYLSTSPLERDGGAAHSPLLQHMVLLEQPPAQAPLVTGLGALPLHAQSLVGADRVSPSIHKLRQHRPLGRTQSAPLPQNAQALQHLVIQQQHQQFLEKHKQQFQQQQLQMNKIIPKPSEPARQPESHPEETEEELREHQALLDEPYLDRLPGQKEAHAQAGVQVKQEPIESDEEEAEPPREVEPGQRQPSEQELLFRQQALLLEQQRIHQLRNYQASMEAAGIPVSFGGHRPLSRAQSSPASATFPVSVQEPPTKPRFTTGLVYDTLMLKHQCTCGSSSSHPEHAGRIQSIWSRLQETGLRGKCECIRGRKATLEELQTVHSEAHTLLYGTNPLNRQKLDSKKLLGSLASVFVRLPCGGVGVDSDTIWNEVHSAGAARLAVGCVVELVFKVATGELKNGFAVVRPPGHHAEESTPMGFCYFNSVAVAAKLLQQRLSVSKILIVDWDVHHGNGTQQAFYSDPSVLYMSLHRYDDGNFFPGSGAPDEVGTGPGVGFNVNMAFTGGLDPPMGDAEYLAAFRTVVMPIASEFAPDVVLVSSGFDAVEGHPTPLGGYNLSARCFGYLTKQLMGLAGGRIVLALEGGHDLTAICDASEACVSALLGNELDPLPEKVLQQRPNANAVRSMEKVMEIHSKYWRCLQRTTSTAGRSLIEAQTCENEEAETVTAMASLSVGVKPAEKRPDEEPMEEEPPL

[11] = Intrinsic clearance in mouse liver microsomes at 3 uM preincubated for 5 mins followed by NADPH addition and measured up to 45 mins by LC-MS/MS analysis; assay type: ADME, Microsome; details: read-out: CLH
MDA-MB-231 [12] = experiment: Induction of apoptosis in human MDA-MB-231 cells assessed as viable cells at 3 uM incubated for 48 hrs by Annexin V-FITC/PI staining by flow cytometric analysis (reference value: 77%); assay type: functional; details: MDA-MB-231, 48 h, read-out: Activity
[13] = biological target: Histone-lysine N-methyltransferase SUV39H2 (Homo sapiens) (UniProt Q9H5I1); experiment: Inhibition of human SUV39H2 at 100 uM using histone H3 as substrate incubated for 1 hr in presence of [3H]-SAM by filter binding method relative to control
Histone-lysine N-methyltransferase SUV39H2 (Homo sapiens), sequence (Q9H5I1 whole entry): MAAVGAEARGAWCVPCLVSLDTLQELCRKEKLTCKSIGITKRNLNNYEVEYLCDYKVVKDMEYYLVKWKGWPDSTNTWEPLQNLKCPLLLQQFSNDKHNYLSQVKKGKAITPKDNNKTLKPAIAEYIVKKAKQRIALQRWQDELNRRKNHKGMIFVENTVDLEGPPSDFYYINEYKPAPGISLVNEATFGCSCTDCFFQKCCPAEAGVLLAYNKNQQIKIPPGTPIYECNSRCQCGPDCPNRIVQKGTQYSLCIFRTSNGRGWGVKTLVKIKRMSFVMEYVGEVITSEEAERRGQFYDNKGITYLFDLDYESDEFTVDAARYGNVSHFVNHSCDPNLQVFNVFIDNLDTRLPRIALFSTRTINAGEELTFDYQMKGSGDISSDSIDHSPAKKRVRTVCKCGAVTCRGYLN

KMS-12-BM [14] = experiment: Antiproliferative activity against human KMS-12-BM cells incubated for 48 hrs by CellTiter-Glo luminescent cell viability assay; assay type: functional, cell-based
Plasmodium falciparum = experiment: microbe, parasite or virus in culture; assay type: functional, organism-based; details: K1, 48 h
Description: Antimalarial activity against ring stage Plasmodium falciparum K1 incubated for 48 hrs by Hoechst 33342 staining based fluorescence based assay

Homo sapiens [15] = species on record: Homo sapiens; experiment: Selectivity ratio of IC50 for inhibition of human HDAC2 to IC50 for inhibition of human HDAC3
[16] = biological target: Histone-lysine N-methyltransferase, H3 lysine-79 specific (Homo sapiens) (UniProt Q8TEK3); experiment: Inhibition of human DOT1L at 100 uM using oligo nucleosomes as substrate incubated for 1 hr in presence of [3H]-SAM by filter binding method relative to control
MOLM-14 = experiment: Antiproliferative activity against human MOLM14 cells incubated for 48 hrs by CellTiter-Glo luminescent cell viability assay; assay type: functional, cell-based; details: MOLM-14, 48 h
[17] = biological target: Histone deacetylase 5 (Homo sapiens) (UniProt Q9UQL6); experiment: Inhibition of human HDAC5 at 10 uM using Acetyl-Lys (trifluoroacetyl)-AMC) as substrate incubated for 2 hrs by fluorescence assay relative to control
Histone deacetylase 5 (Homo sapiens), sequence (Q9UQL6 whole entry): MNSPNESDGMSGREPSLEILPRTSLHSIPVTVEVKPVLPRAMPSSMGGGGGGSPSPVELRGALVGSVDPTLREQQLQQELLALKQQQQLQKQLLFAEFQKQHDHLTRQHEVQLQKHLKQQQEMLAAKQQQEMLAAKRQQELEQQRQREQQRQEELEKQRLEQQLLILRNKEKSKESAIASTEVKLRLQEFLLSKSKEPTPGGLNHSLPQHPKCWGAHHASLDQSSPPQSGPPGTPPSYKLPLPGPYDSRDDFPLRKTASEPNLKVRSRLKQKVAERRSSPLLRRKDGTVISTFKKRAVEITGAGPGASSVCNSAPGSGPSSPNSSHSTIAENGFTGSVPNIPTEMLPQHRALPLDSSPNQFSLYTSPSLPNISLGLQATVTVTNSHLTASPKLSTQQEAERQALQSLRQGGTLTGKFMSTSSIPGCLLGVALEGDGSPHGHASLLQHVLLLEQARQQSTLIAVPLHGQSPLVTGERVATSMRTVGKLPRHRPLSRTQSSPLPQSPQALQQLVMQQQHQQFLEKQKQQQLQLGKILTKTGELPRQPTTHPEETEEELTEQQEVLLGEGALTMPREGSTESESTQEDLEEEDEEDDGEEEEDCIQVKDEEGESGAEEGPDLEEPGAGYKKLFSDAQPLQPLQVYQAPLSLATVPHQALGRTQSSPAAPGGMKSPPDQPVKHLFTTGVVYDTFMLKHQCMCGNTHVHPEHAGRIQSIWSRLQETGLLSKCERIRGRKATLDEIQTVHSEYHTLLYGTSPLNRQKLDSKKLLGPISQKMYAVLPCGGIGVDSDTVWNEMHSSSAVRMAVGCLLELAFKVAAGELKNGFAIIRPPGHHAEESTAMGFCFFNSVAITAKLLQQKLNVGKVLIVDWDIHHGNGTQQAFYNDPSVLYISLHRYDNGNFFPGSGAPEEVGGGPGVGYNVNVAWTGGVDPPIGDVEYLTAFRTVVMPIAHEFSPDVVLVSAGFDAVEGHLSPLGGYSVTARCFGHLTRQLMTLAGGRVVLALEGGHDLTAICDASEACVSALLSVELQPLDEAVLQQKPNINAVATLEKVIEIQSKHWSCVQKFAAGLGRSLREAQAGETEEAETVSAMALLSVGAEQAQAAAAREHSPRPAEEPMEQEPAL

[18] = biological target: Histone deacetylase 9 (Homo sapiens) (UniProt Q9UKV0); experiment: Inhibition of human HDAC9 at 10 uM using Acetyl-Lys (trifluoroacetyl)-AMC) as substrate incubated for 2 hrs by fluorescence assay relative to control
[19] = biological target: Polyamine deacetylase HDAC10 (Homo sapiens, UniProt Q969S8); experiment: Inhibition of human HDAC10 using Acetyl-Lys (trifluoroacetyl)-AMC) as substrate incubated for 2 hrs by fluorescence assay
Polyamine deacetylase HDAC10, sequence (Q969S8 whole entry): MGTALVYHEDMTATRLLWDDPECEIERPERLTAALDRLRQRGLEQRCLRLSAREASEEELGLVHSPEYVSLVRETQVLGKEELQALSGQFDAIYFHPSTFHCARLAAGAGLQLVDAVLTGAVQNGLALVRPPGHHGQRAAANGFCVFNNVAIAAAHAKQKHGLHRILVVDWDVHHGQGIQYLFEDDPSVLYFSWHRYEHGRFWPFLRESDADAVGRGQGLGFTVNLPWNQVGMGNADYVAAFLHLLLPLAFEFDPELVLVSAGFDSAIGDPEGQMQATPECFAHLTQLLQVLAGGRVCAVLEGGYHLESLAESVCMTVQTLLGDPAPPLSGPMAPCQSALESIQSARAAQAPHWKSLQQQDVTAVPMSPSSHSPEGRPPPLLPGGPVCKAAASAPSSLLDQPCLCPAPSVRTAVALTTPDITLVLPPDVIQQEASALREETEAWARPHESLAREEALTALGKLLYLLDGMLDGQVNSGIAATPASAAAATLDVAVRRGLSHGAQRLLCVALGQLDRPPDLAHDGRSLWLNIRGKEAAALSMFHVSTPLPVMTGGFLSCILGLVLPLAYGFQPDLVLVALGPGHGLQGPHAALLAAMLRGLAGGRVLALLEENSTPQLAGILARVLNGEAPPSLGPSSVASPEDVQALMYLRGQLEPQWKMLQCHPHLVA

Ratio IC50 (Homo sapiens [2]): > 3000 | EC50 (MCF7): 7.3 µM | inhibition [6]: 37% | Ratio IC50 (Homo sapiens [7]): > 3000 | IC50 [8]: 14 µM | IC50 (Histone deacetylase 11): 1.81 µM | solubility kinetic at 24 h [9]: 4 µM (≈ 2.74 µg/mL) | inhibition [10]: 20% | microsomal CLint at 3 µM [11]: 52.2 µL/min/mg | inhibition [13]: inactive | IC50 (Plasmodium falciparum): 0.508 µM | Ratio IC50 (Homo sapiens [15]): 26 to 33 | inhibition [16]: 16% | EC50 (MOLM-14): 2.8 µM | inhibition [17]: 25% | inhibition [18]: 21% | IC50 [19]: 2.69 µM
Compound: COc1ccc(CN2CCC(Nc3nc(Nc4ccc(NC(=O)CCCCCCC(=O)NO)cc4)nc4cc(OC)c(OC)cc34)CC2)cc1
Activity (KMS-12-BM [1]): Active | Activity (MDA-MB-231 [3]): 15% | Selectivity Index [4]: 43 | Activity (MDA-MB-231 [5]): 12% | EC50 (TAMH): 29 µM | viability at 3 µM (MDA-MB-231 [12]): 48% | EC50 (KMS-12-BM [14]): 7.6 µM
